Measurements as given in the supplement of paper PMC10307832.

Legend:
Assay in all cases: relative viability (nuclei count vs DMSO), 5 days (fraction); higher = more cells survive
XMD8-85 + AZD7762 = compound: CN1CCN(CC1)C2=CC(=C(C=C2)NC3=NC=C4C(=N3)N(C5=CC=CC=C5C(=O)N4C)C)OC [XMD8-85] + NC(=O)Nc1cc(-c2cccc(F)c2)sc1C(=O)N[C@H]1CCCNC1 [AZD7762] (partner 0.2 µM)
Summary of the method: (§1)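 After 5 days of treatment, lung cancer cells in 1536-well plates were fixed and stained in a single step (final 0.05% Triton X-100, 1% formaldehyde, 1 ug/ml Hoechst) and their nuclei counted on 4× images. Treatment had been applied by pin tool the day after seeding as one drug alone or as a fixed anchor-drug dose with five library-drug doses (not always all listed) in √10 steps. Relative viability is the nuclei count of treated wells divided by that of vehicle wells, and values are medians of duplicate plates.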

XMD8-85 + Palbociclib = compound: CN1CCN(CC1)C2=CC(=C(C=C2)NC3=NC=C4C(=N3)N(C5=CC=CC=C5C(=O)N4C)C)OC [XMD8-85] + CC(=O)c1c(C)c2cnc(Nc3ccc(N4CCNCC4)cn3)nc2n(C2CCCC2)c1=O [Palbociclib] (partner 0.5 µM)
Summary of the method: as §1

XMD8-85 + Luminespib = compound: CN1CCN(CC1)C2=CC(=C(C=C2)NC3=NC=C4C(=N3)N(C5=CC=CC=C5C(=O)N4C)C)OC [XMD8-85] + CCNC(=O)c1noc(-c2cc(C(C)C)c(O)cc2O)c1-c1ccc(CN2CCOCC2)cc1 [Luminespib] (partner 0.01 µM)
Summary of the method: as §1

4EGI-1 + Palbociclib = compound: O=C(O)C(Cc1ccccc1[N+](=O)[O-])=NNc1nc(-c2ccc(Cl)c(Cl)c2)cs1 (mixture of isomers) [4EGI-1] + CC(=O)c1c(C)c2cnc(Nc3ccc(N4CCNCC4)cn3)nc2n(C2CCCC2)c1=O [Palbociclib] (partner 0.5 µM)
Summary of the method: as §1

Cell Line | relative viability (XMD8-85 + AZD7762; first compound 0.08 µM) | relative viability (XMD8-85 + AZD7762; first compound 0.253 µM) | relative viability (XMD8-85 + AZD7762; first compound 0.8 µM) | relative viability (XMD8-85 + AZD7762; first compound 2.53 µM) | relative viability (XMD8-85 + AZD7762; first compound 8 µM) | relative viability (XMD8-85 + Palbociclib; first compound 0.08 µM) | relative viability (XMD8-85 + Palbociclib; first compound 0.253 µM) | relative viability (XMD8-85 + Palbociclib; first compound 0.8 µM) | relative viability (XMD8-85 + Palbociclib; first compound 2.53 µM) | relative viability (XMD8-85 + Palbociclib; first compound 8 µM) | relative viability (XMD8-85 + Luminespib; first compound 0.08 µM) | relative viability (XMD8-85 + Luminespib; first compound 0.253 µM) | relative viability (XMD8-85 + Luminespib; first compound 0.8 µM) | relative viability (XMD8-85 + Luminespib; first compound 2.53 µM) | relative viability (XMD8-85 + Luminespib; first compound 8 µM) | relative viability (4EGI-1 + Palbociclib; first compound 0.5 µM) | relative viability (4EGI-1 + Palbociclib; first compound 5 µM) | relative viability (4EGI-1 + Palbociclib; first compound 15.81 µM) | relative viability (4EGI-1 + Palbociclib; first compound 50 µM) | relative viability (4EGI-1 + Palbociclib; first compound 1.581 µM)
NCI-H1703 | 0.107 | 0.147 | 0.133 | 0.119 | 0.107 |  |  |  |  |  |  |  |  |  |  |  |  |  |  | 
EKVX | 0.685 | 0.742 | 0.67 | 0.729 | 0.646 | 0.285 | 0.369 | 0.446 | 0.487 | 0.372 | 0.911 | 0.905 | 0.588 | 0.877 | 0.876 | 0.456 | 0.365 | 0.23 | 0.307 | 
COR-L23 |  |  |  |  |  | 0.269 | 0.234 | 0.269 | 0.294 | 0.238 | 0.504 | 0.589 | 0.963 |  | 0.487 | 0.382 | 0.3 | 0.205 | 0.101 | 0.214
SW 1573 |  |  |  |  |  |  | 0.387 | 0.431 | 0.365 | 0.192 | 0.276 | 0.189 | 0.183 | 0.172 | 0.175 | 0.417 | 0.47 | 0.257 | 0.119 | 0.354
NCI-H1648 | 0.483 | 0.572 | 0.587 | 0.717 | 0.726 | 0.251 | 0.261 | 0.225 | 0.258 | 0.288 |  |  |  |  |  | 0.271 | 0.314 | 0.275 | 0.253 | 0.232
COR-L 105 |  |  |  |  |  | 0.421 | 0.423 | 0.368 | 0.382 | 0.409 | 0.99 | 0.842 | 0.645 |  | 0.272 | 0.386 | 0.434 | 0.334 | 0.344 | 0.419
NCI-H2023 |  |  |  |  |  | 0.368 | 0.441 | 0.334 | 0.411 | 0.246 | 0.406 | 0.751 |  | 0.649 | 0.407 | 0.358 | 0.483 | 0.245 | 0.0543 | 
NCI-H1355 | 0.678 | 0.697 | 0.798 | 0.817 |  | 0.395 | 0.365 |  | 0.619 | 0.306 | 0.528 | 0.747 | 0.697 | 0.642 | 0.6 | 0.415 | 0.406 | 0.337 | 0.316 | 0.396
NCI-H1975 | 0.742 | 0.656 | 0.661 | 0.653 | 0.547 | 0.587 | 0.511 | 0.524 | 0.651 | 0.296 | 0.398 | 0.188 | 0.207 | 0.236 | 0.152 | 0.725 | 0.527 | 0.665 | 0.41 | 0.565
EPLC-272H | 0.209 | 0.16 | 0.362 | 0.229 | 0.273 | 0.284 | 0.317 | 0.312 | 0.306 | 0.303 | 0.266 | 0.373 | 0.629 | 0.389 | 0.186 | 0.317 | 0.367 | 0.274 | 0.301 | 
NCI-H1915 | 0.735 | 0.71 | 0.683 |  | 0.725 | 0.721 | 0.529 | 0.537 | 0.549 | 0.371 | 0.807 | 0.764 | 0.49 | 0.47 | 0.448 | 0.562 | 0.517 | 0.477 | 0.404 | 0.369
HCC-366 | 0.216 | 0.311 | 0.335 | 0.336 | 0.259 | 0.316 | 0.298 | 0.375 | 0.291 | 0.196 |  |  |  |  |  | 0.396 | 0.396 | 0.272 | 0.0604 | 0.224
NCI-H520 |  |  |  |  |  | 0.181 | 0.211 | 0.199 | 0.221 | 0.196 | 0.235 | 0.257 | 0.192 | 0.202 | 0.201 | 0.27 | 0.266 | 0.223 | 0.105 | 0.225
SK-MES-1 |  |  |  |  |  | 0.342 | 0.351 | 0.31 |  | 0.248 | 0.823 | 0.768 | 0.779 | 0.655 | 0.409 | 0.354 | 0.336 | 0.288 | 0.18 | 0.27
SK-LU-1 |  |  |  |  |  | 0.358 | 0.364 | 0.392 | 0.356 | 0.385 | 0.193 | 0.207 | 0.207 | 0.191 | 0.165 | 0.439 | 0.414 | 0.386 | 0.289 | 0.44
NCI-H596 | 1.18 | 0.944 | 1.06 | 1.1 | 0.966 |  |  |  |  |  | 0.885 | 1.02 |  | 0.875 | 0.605 |  |  |  |  | 
NCI-H661 |  |  |  |  |  | 0.401 |  | 0.4 | 0.443 | 0.346 | 1.06 | 0.952 | 1.01 | 1.04 | 0.806 | 0.454 | 0.385 | 0.31 | 0.284 | 0.413
NCI-H1650 |  |  |  |  |  | 0.296 | 0.317 | 0.318 | 0.353 | 0.193 | 0.203 | 0.216 | 0.199 | 0.173 | 0.173 | 0.417 | 0.331 | 0.255 | 0.141 | 
HCC-78 | 0.556 | 0.582 | 0.728 | 1.13 | 0.499 | 0.544 | 0.459 | 0.564 | 0.503 | 0.435 |  |  |  |  |  | 0.471 | 0.434 | 0.432 | 0.488 | 0.462
NCI-H2009 |  |  |  |  |  | 0.198 | 0.208 | 0.184 | 0.163 | 0.154 | 1.01 | 1.01 | 1.05 | 0.898 | 0.564 | 0.251 | 0.224 | 0.196 | 0.149 | 0.243
NCI-H2228 |  |  |  |  |  | 0.651 | 0.572 | 0.828 | 0.844 | 0.35 | 0.154 | 0.209 | 0.114 | 0.188 | 0.185 | 1.22 | 0.785 | 0.787 | 0.314 | 0.708
